Assay results taken from patent US20130303509A1, “NAMPT INHIBITORS” (AbbVie Inc., priority 2012, published 2013).
pIC50: −log10 of the molar value.

System: PC3 cells
Assay: NAMPT Cell Proliferation Assay
Type: cell-based
Conditions: Homo sapiens, PC-3, 120 h, 5 days incubation, cell viability by Cell Titer Glo
Method: NAMPT Cell Proliferation Assay
PC3 cells were seeded in 96-well black plates (Corning #3904) at 500 cells)Owell in 90 µl of RPMI media containing 10% heat-inactivated FBS and incubated overnight at 37° C. and 5% CO2 to allow cells to attach to wells. The following day, test compounds were serially diluted in neat DMSO to 1000× final concentrations prior to dilution with RPMI media to 10× and 1% DMSO. […] of the 10× compounds were then transferred to wells containing cells to produce a dose response of 10-fold dilutions from […] to 1×10^−[…]. Cells were incubated for 5 days at 37° C. and 5% CO2, then cell viability was measured using Cell Titer Glo reagent (Promega #G7571). Percent inhibition values were calculated and fitted to a sigmoidal dose response curves using Assay Explorer software to determine IC50s.

`CCCCC(=O)N1CCC(Oc2ccc(NC(=O)C3CN(c4cccnc4)C3)cc2)CC1` [Example 34, N-{4-[(1-pentanoylpiperidin-4-yl)oxy]phenyl}-1-(pyridin-3-yl)azetidine-3-carboxamide] was tested, and the pIC50 was 8.17.
In the case of `CC1CC1C(=O)N1CCC(Oc2ccc(NC(=O)C3CN(c4cccnc4)C3)cc2)CC1` (centres unmarked) [Example 35, N-[4-({1-[(2-methylcyclopropyl)carbonyl]piperidin-4-yl}oxy)phenyl]-1-(pyridin-3-yl)azetidine-3-carboxamide], the pIC50 was 8.16.
Work on `O=C(Nc1ccc(OC2CCN(C(=O)CC3C[C@@H]4CC[C@H]3C4)CC2)cc1)C1CN(c2cccnc2)C1` (stereo partly drawn) [Example 36, N-[4-({1-[(1S,4R)-bicyclo[2.2.1]hept-2-ylacetyl]piperidin-4-yl}oxy)phenyl]-1-(pyridin-3-yl)azetidine-3-carboxamide] yielded a pIC50 of 8.02.
Compound `CC(C)CCC(=O)N1CCC(Oc2ccc(NC(=O)C3CN(c4cccnc4)C3)cc2)CC1` [Example 37, N-(4-{[1-(4-methylpentanoyl)piperidin-4-yl]oxy}phenyl)-1-(pyridin-3-yl)azetidine-3-carboxamide] has a pIC50 of 8.19.
`CCC(C)CC(=O)N1CCC(Oc2ccc(NC(=O)C3CN(c4cccnc4)C3)cc2)CC1` (centres unmarked) [Example 38, N-(4-{[1-(3-methylpentanoyl)piperidin-4-yl]oxy}phenyl)-1-(pyridin-3-yl)azetidine-3-carboxamide] gave a pIC50 of 8.19.
In the case of `CCOCCC(=O)N1CCC(Oc2ccc(NC(=O)C3CN(c4cccnc4)C3)cc2)CC1` [Example 39, N-(4-{[1-(3-ethoxypropanoyl)piperidin-4-yl]oxy}phenyl)-1-(pyridin-3-yl)azetidine-3-carboxamide], the pIC50 was 8.13.
Compound `CCC(C)(C)C(=O)N1CCC(Oc2ccc(NC(=O)C3CN(c4cccnc4)C3)cc2)CC1` [Example 40, N-(4-{[1-(2,2-dimethylbutanoyl)piperidin-4-yl]oxy}phenyl)-1-(pyridin-3-yl)azetidine-3-carboxamide] has a pIC50 of 8.66.
`CC(C)(C)CC(=O)N1CCC(Oc2ccc(NC(=O)C3CN(c4cccnc4)C3)cc2)CC1` [Example 41, N-(4-{[1-(3,3-dimethylbutanoyl)piperidin-4-yl]oxy}phenyl)-1-(pyridin-3-yl)azetidine-3-carboxamide] was tested, and the pIC50 was 8.42.
`CC(C)(C)C(=O)N1CCC(Oc2ccc(NC(=O)C3CN(c4cccnc4)C3)cc2)CC1` [Example 42, N-(4-{[1-(2,2-dimethylpropanoyl)piperidin-4-yl]oxy}phenyl)-1-(pyridin-3-yl)azetidine-3-carboxamide] gave a pIC50 of 7.19.
Work on `CCCC(=O)N1CCC(Oc2ccc(NC(=O)C3CN(c4cccnc4)C3)cc2)CC1` [Example 43, N-{4-[(1-butanoylpiperidin-4-yl)oxy]phenyl}-1-(pyridin-3-yl)azetidine-3-carboxamide] yielded a pIC50 of 8.16.
Work on `CCOCC(=O)N1CCC(Oc2ccc(NC(=O)C3CN(c4cccnc4)C3)cc2)CC1` [Example 44, N-(4-{[1-(ethoxyacetyl)piperidin-4-yl]oxy}phenyl)-1-(pyridin-3-yl)azetidine-3-carboxamide] yielded a pIC50 of 8.26.
`CC(C)CC(=O)N1CCC(Oc2ccc(NC(=O)C3CN(c4cccnc4)C3)cc2)CC1` [Example 45, N-(4-{[1-(3-methylbutanoyl)piperidin-4-yl]oxy}phenyl)-1-(pyridin-3-yl)azetidine-3-carboxamide] was tested, and the pIC50 was 8.17.
In the case of `CC(C)C(=O)N1CCC(Oc2ccc(NC(=O)C3CN(c4cccnc4)C3)cc2)CC1` [Example 46, N-(4-{[1-(2-methylpropanoyl)piperidin-4-yl]oxy}phenyl)-1-(pyridin-3-yl)azetidine-3-carboxamide], the pIC50 was 8.52.
Compound `CC(=O)N[C@@H](CC(C)C)C(=O)N1CCC(Oc2ccc(NC(=O)C3CN(c4cccnc4)C3)cc2)CC1` [Example 47, N-(4-{[1-(N-acetyl-L-leucyl)piperidin-4-yl]oxy}phenyl)-1-(pyridin-3-yl)azetidine-3-carboxamide] has a pIC50 of 8.47.
Work on `COCCOCC(=O)N1CCC(Oc2ccc(NC(=O)C3CN(c4cccnc4)C3)cc2)CC1` [Example 48, N-[4-({1-[(2-methoxyethoxy)acetyl]piperidin-4-yl}oxy)phenyl]-1-(pyridin-3-yl)azetidine-3-carboxamide] yielded a pIC50 of 8.54.
`O=C(Nc1ccc(OC2CCN(C(=O)C3CCCCC3)CC2)cc1)C1CN(c2cccnc2)C1` [Example 49, N-(4-{[1-(cyclohexylcarbonyl)piperidin-4-yl]oxy}phenyl)-1-(pyridin-3-yl)azetidine-3-carboxamide] was tested, and the pIC50 was 8.16.
`O=C(Nc1ccc(OC2CCN(C(=O)CC3CCCCC3)CC2)cc1)C1CN(c2cccnc2)C1` [Example 50, N-(4-{[1-(cyclohexylacetyl)piperidin-4-yl]oxy}phenyl)-1-(pyridin-3-yl)azetidine-3-carboxamide] was tested, and the pIC50 was 8.05.
`O=C(Nc1ccc(OC2CCN(C(=O)CCC(F)(F)F)CC2)cc1)C1CN(c2cccnc2)C1` [Example 51, 1-(pyridin-3-yl)-N-(4-{[1-(4,4,4-trifluorobutanoyl)piperidin-4-yl]oxy}phenyl)azetidine-3-carboxamide] showed a pIC50 of 8.44.
For `O=C(Nc1ccc(OC2CCN(C(=O)C3CCCC3)CC2)cc1)C1CN(c2cccnc2)C1` [Example 52, N-(4-{[1-(cyclopentylcarbonyl)piperidin-4-yl]oxy}phenyl)-1-(pyridin-3-yl)azetidine-3-carboxamide], the pIC50 was 8.20.
With `CC1(C(=O)N2CCC(Oc3ccc(NC(=O)C4CN(c5cccnc5)C4)cc3)CC2)CCCCC1` [Example 53, N-[4-({1-[(1-methylcyclohexyl)carbonyl]piperidin-4-yl}oxy)phenyl]-1-(pyridin-3-yl)azetidine-3-carboxamide] the pIC50 was 8.44.
Work on `O=C(Nc1ccc(OC2CCN(C(=O)c3ccoc3)CC2)cc1)C1CN(c2cccnc2)C1` [Example 54, N-(4-{[1-(furan-3-ylcarbonyl)piperidin-4-yl]oxy}phenyl)-1-(pyridin-3-yl)azetidine-3-carboxamide] yielded a pIC50 of 8.48.
`O=C(Nc1ccc(OC2CCN(C(=O)CC(F)(F)F)CC2)cc1)C1CN(c2cccnc2)C1` [Example 55, 1-(pyridin-3-yl)-N-(4-{[1-(3,3,3-trifluoropropanoyl)piperidin-4-yl]oxy}phenyl)azetidine-3-carboxamide] showed a pIC50 of 7.68.
`CC(=O)N1CCC(Oc2ccc(NC(=O)C3CN(c4cccnc4)C3)cc2)CC1` [Example 56, N-{4-[(1-acetylpiperidin-4-yl)oxy]phenyl}-1-(pyridin-3-yl)azetidine-3-carboxamide] gave a pIC50 of 8.03.
`COCC(=O)N1CCC(Oc2ccc(NC(=O)C3CN(c4cccnc4)C3)cc2)CC1` [Example 57, N-(4-{[1-(methoxyacetyl)piperidin-4-yl]oxy}phenyl)-1-(pyridin-3-yl)azetidine-3-carboxamide] gave a pIC50 of 8.06.
`O=C(Nc1ccc(OC2CCN(C(=O)c3ccsc3)CC2)cc1)C1CN(c2cccnc2)C1` [Example 58, 1-(pyridin-3-yl)-N-(4-{[1-(thiophen-3-ylcarbonyl)piperidin-4-yl]oxy}phenyl)azetidine-3-carboxamide] was tested, and the pIC50 was 8.19.
With `Cc1ccsc1C(=O)N1CCC(Oc2ccc(NC(=O)C3CN(c4cccnc4)C3)cc2)CC1` [Example 59, N-[4-({1-[(3-methylthiophen-2-yl)carbonyl]piperidin-4-yl}oxy)phenyl]-1-(pyridin-3-yl)azetidine-3-carboxamide] the pIC50 was 8.21.
In the case of `O=C(Nc1ccc(OC2CCN(C(=O)CN3CCOCC3)CC2)cc1)C1CN(c2cccnc2)C1` [Example 60, N-(4-{[1-(morpholin-4-ylacetyl)piperidin-4-yl]oxy}phenyl)-1-(pyridin-3-yl)azetidine-3-carboxamide], the pIC50 was 8.29.
Compound `O=C(Nc1ccc(OC2CCN(C(=O)c3cccs3)CC2)cc1)C1CN(c2cccnc2)C1` [Example 61, 1-(pyridin-3-yl)-N-(4-{[1-(thiophen-2-ylcarbonyl)piperidin-4-yl]oxy}phenyl)azetidine-3-carboxamide] has a pIC50 of 8.45.
`Cc1ccc(C(=O)N2CCC(Oc3ccc(NC(=O)C4CN(c5cccnc5)C4)cc3)CC2)s1` [Example 62, N-[4-({1-[(5-methylthiophen-2-yl)carbonyl]piperidin-4-yl}oxy)phenyl]-1-(pyridin-3-yl)azetidine-3-carboxamide] gave a pIC50 of 7.85.
`O=C(Nc1ccc(OC2CCN(C(=O)c3ccco3)CC2)cc1)C1CN(c2cccnc2)C1` [Example 63, N-(4-{[1-(furan-2-ylcarbonyl)piperidin-4-yl]oxy}phenyl)-1-(pyridin-3-yl)azetidine-3-carboxamide] gave a pIC50 of 8.20.
In the case of `Cn1cccc1C(=O)N1CCC(Oc2ccc(NC(=O)C3CN(c4cccnc4)C3)cc2)CC1` [Example 64, N-[4-({1-[(1-methyl-1H-pyrrol-2-yl)carbonyl]piperidin-4-yl}oxy)phenyl]-1-(pyridin-3-yl)azetidine-3-carboxamide], the pIC50 was 8.20.
Work on `CCC(=O)N1CCC(Oc2ccc(NC(=O)C3CN(c4cccnc4)C3)cc2)CC1` [Example 65, N-{4-[(1-propanoylpiperidin-4-yl)oxy]phenyl}-1-(pyridin-3-yl)azetidine-3-carboxamide] yielded a pIC50 of 8.20.
In the case of `CC1(C(=O)N2CCC(Oc3ccc(NC(=O)C4CN(c5cccnc5)C4)cc3)CC2)CC1` [Example 66, N-[4-({1-[(1-methylcyclopropyl)carbonyl]piperidin-4-yl}oxy)phenyl]-1-(pyridin-3-yl)azetidine-3-carboxamide], the pIC50 was 8.24.
`CN(C)CCC(=O)N1CCC(Oc2ccc(NC(=O)C3CN(c4cccnc4)C3)cc2)CC1` [Example 67, N-(4-{[1-(N,N-dimethyl-beta-alanyl)piperidin-4-yl]oxy}phenyl)-1-(pyridin-3-yl)azetidine-3-carboxamide] gave a pIC50 of 6.41.
For `O=C(Nc1ccc(OC2CCN(C(=O)c3nccs3)CC2)cc1)C1CN(c2cccnc2)C1` [Example 68, 1-(pyridin-3-yl)-N-(4-{[1-(1,3-thiazol-2-ylcarbonyl)piperidin-4-yl]oxy}phenyl)azetidine-3-carboxamide], the pIC50 was 8.45.
